Legend:
IL17A = molecular target: T1, IL17A (Homo sapiens, UniProt Q16552); assay: Surface Plasmon Resonance (SPR) analysis of compound interactions with IL17A; conditions: SPR binding to IL17A
T1 sequence (Q16552 24-155): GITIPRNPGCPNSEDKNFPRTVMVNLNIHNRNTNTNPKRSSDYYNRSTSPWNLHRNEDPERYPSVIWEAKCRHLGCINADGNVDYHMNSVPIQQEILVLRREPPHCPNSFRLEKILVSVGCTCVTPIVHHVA
In short: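 His-tagged IL17A captured on a Ni-NTA chip; five 2- or 3-fold compound dilutions from 50 μM injected for 180 s, 120 s dissociation, in HEPES-saline buffer with 0.5% DMSO. Baseline-subtracted sensorgrams fitted 1:1 for ka, kd and KD; Kd also derived from binding extent per concentration.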

[1] = test system: IL-17A induced secretion of IL-6 in primary human RASF cells; assay: Inhibition of IL17A induced secretion of IL6 in human rheumatoid arthritis synovial fibroblast (RASF) cells; type: cell-based; conditions: Homo sapiens, Fibroblast
In short: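 Primary RASF cells (passage 2-8) stimulated 20 h at 37 °C with rhIL-17A (30 ng/mL) pre-incubated 1 h with compound (final 0.03-25 μM, 0.25% DMSO). Supernatant IL-6 measured by ELISA, normalized to WST1 viability; triplicates.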

[2] = molecular target: T2, recombinant human IL17a (binding to its receptor IL17R) (Homo sapiens, UniProt Q16552); assay: IL-17 competition ELISA I (IL17a coated, IL17R/Fc binding)
T2 construct: purchased R&D Systems 317-ILB (IL17a); 177-IR (IL17R/Fc)
T2 sequence (Q16552 20-155 limits assumed): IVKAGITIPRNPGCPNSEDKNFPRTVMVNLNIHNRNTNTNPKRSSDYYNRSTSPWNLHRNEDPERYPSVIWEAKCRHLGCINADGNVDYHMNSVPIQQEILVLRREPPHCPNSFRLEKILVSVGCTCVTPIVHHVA
In short: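 Plates coated with 20 nM recombinant human IL17a received compound dilutions and 12 nM IL17R/Fc (final) for 30 min at room temperature. Bound receptor was detected with HRP anti-human Fc and TMB, read at 450 nm. IC50 came from a 4-parameter logistic fit between no-competitor and blank controls.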

[3] = test system: IL-17-induced GROα secretion from HT-29 cells; assay: HT-29 cellular assay (IL-17-induced GROα secretion); type: cell-based; conditions: Homo sapiens
Method: To test the ability of a compound of the invention to neutralize or antagonize IL-17 bioactivity, the following cell-based assay was used. IL-17 can stimulate epithelial cells and other cells to secrete GROα. The ability of a compound of the invention to neutralize IL-17-induced GROα secretion from the human colorectal adenocarcinoma epithelial cell line HT-29 is tested in this assay.
HT-29 cells (human colorectal adenocarcinoma epithelial cells, ATCC #HTB-38), were maintained in culture/assay medium in tissue culture-treated flasks using standard techniques. HT-29 cells were grown in tissue culture flasks until they were 50-80% confluent on the day before the assay. The day before the assay, the cells were detached from the culture flasks with trypsin+EDTA. The trypsin was inactivated with complete assay medium. HT-29 cells were then centrifuged at 500×g for 5 minutes at room temperature. The cell pellet was then re-suspended in Defined Keratinocyte SFM (Invitrogen #10766019)+10% FCS and 50,000 HT-29 cells (in 100 μl) were added to each treatment well of the 96-well plates. The 96-well plates were placed in a tissue culture incubator (37° C., 5% CO2) overnight. The next day, the media was removed from the cells and the cells were washed twice with Defined Keratinocyte SFM. In a separate 96-well plate, compounds to be tested were serially diluted in Defined Keratinocyte SFM and run in triplicate in 100 μL total volume. To these compound samples were then added 100 μL of human IL-17 at a concentration of 20 ng/mL in Defined Keratinocyte SFM for serum-free assays. 150 μL of the compound/IL-17 mixture was then added to the cells from which the media has previously been removed. The cells were grown for 48 hours in Defined Keratinocyte SFM in a tissue culture incubator (37° C., 5% CO2).
At the end of the incubation, the plates are centrifuged (500×g for 5 minutes at room temperature), and the cell culture media is transferred to polypropylene 96-well plates. The supernatant was used neat in the ELISA. GROα levels are measured with a GROα sandwich ELISA (R+D Systems DuoSet #DY275E), as per the manufacturer's instructions. The ELISA plates were previously coated with mAb 275 (R+D Systems) at 4 μg/mL. GROα is detected using biotinylated goat anti-human GROα (R+D Systems BAF275) at 200 ng/mL using TMB as a substrate. At the end of the ELISA reactions, plates are read at 450 nm on a microplate reader and compared to a standard calibration curve.

DNFB-treated BALB/c mice = assay: Murine model of delayed hypersensitivity (DNFB-induced ear edema); type: in vivo, mouse; conditions: po; for Reduction in edema (%): ear weight 24 h after DNFB challenge; for IFNγ Reduction (%) / IL6 Reduction (%) / CXCL1 Reduction (%): plasma
Method: We used a murine model of fluorodinitrobenzene (DNFB)-induced ear edema to test the anti-inflammatory activity of both orally dosed and intraperitoneally dosed exemplary compounds of the invention. BALB/c mice (Harlan Sprague-Dawley, Inc., male, 6-8 weeks old) were topically treated on their shaved abdomen with 30 μL of 0.5% 1-fluoro-2,4-dinitrobenzene (DNFB) (4:1 acetone:olive oil) once on Day 0 and once on Day 1.
For oral dosing (“PO”), exemplary compounds of the invention were either suspended at 3 mg/mL in 20% Cremophor EL (Sigma) (20:80; Cremophor:water) or dissolved at 1 mg/mL or 3 mg/mL in D-α-tocopherol polyethylene glycol 1000 succinate (TPGS; Sigma)/PEG-400/water (20:60:20). For intraperitoneal dosing (“IP”), exemplary compounds of the invention were dissolved in DMSO at a concentration of 5 mg/mL. On day 7, the test compound was administered (PO at either 10 mg/kg or 30 mg/kg; IP at 1, 3, or 10 mg/kg) to DNFB-treated mice. Commercially available anti-mouse IL-17A (BioLegend) administered intraperitoneally at 5 mg/kg in PBS was used as a positive control. Thirty minutes later, 20 μL of 0.2% DNFB was applied to the right ear of animals and vehicle ([…]:olive oil) was applied to the left ear. One and four hours after DNFB challenge, a subset of mice was exsanguinated and plasma prepared from the blood. Twenty-four hours after challenge, the remaining mice were euthanized, and their ears were removed and weighed to determine the amount of edema. Plasma was assayed for interleukin-6, TNF-α, CXCL1, and interferon-γ concentrations using commercially-available assays.

[4] = molecular target: T3, biotinylated human IL-17 (binding to IL17R/Fc) (Homo sapiens, UniProt Q16552); assay: IL-17 competition ELISA II (captured IL17R/Fc, biotinylated IL-17)
T3 construct: purchased R&D Systems 317-ILB (IL-17, biotinylated); 177-IR (IL17R/Fc)
T3 sequence (Q16552 20-155 limits assumed): T2 sequence (Q16552 20-155 limits assumed)
In short: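 Competition read-out: absorbance at 450 nm after streptavidin-HRP/TMB detection, fitted to a 4-parameter logistic model bounded by no-competitor and blank wells to give IC50. Compound was serially diluted 5-fold from 1 μM alongside 20 nM (stock) biotinylated IL-17 on IL17R/Fc (10 nM) captured via goat anti-human IgG, 30 min at room temperature.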

| SMILES | Kd (IL17A) [µM] | IC50 [2] [µM] | IC50 [3] [µM] | IC50 [1] [µM] | other results |
| --- | --- | --- | --- | --- | --- |
| O=C1CNC(=O)[C@@H](Cc2ccc(NC(=O)[C@H](Cc3ccccc3F)NC(=O)Cc3ccccc3)cc2)NC(=O)CC2(CCCC2)CC(=O)N[C@H](C(=O)O)CCCCN1 [Compound 177] | < 0.1 | – | 1 to 10 | – | – |
| CC[C@H](C)[C@H](NC(=O)Cc1ccccc1)C(=O)Nc1ccc(C[C@H]2NC(=O)CC3(CCCC3)CC(=O)N[C@H](C(=O)OC)CCCCNC(=O)CCCNC2=O)cc1 [Compound 122] | 1 to 10 | 1 to 10 | – | 1 to 10 | – |
| CC(C)(C)C(=O)N[C@@H](Cc1ccccc1Cl)C(=O)Nc1ccc(C[C@H]2NC(=O)CC3(CCCC3)CC(=O)NCCCCCNC(=O)CNC2=O)cc1 [Compound 206] | < 0.1 | < 0.1 | – | 1 to 10 | – |
| COC(=O)[C@@H]1CCCCNC(=O)CNC(=O)[C@@H](Cc2ccc(NC(=O)[C@H](Cc3ccccc3F)NC(=O)Cc3ccccc3)cc2)NC(=O)CC2(CCCC2)CC(=O)N1 [Compound 108] | < 0.1 | – | 1 to 10 | – | – |
| O=C1CNC(=O)[C@@H](Cc2ccc(NC(=O)[C@H](Cc3ccccc3Cl)NC(=O)Cc3ccccc3O)cc2)NC(=O)CC2(CCCC2)CC(=O)NCCCCCN1 [Compound 216] | < 0.1 | < 0.1 | – | 1 to 10 | – |
| CC(=O)N[C@@H](Cc1ccccc1Cl)C(=O)Nc1ccc(C[C@H]2NC(=O)CC3(CCCC3)CC(=O)NCCCCCNC(=O)CNC2=O)cc1 [Compound 153] | < 0.1 | < 0.1 | – | 1 to 10 | – |
| COC(=O)N[C@@H](Cc1ccccc1Cl)C(=O)Nc1ccc(C[C@H]2NC(=O)CC3(CCCC3)CC(=O)NCCOCCOCCNC2=O)cc1 [Compound 465] | – | – | – | – | Reduction in edema (%) (DNFB-treated BALB/c mice; 30 mg/kg): 23.5%; IFNγ Reduction (%) (DNFB-treated BALB/c mice; 30 mg/kg): 47.4%; IL6 Reduction (%) (DNFB-treated BALB/c mice; 30 mg/kg): 42.5%; IC50 [4]: < 0.1 µM |
| O=C1CNC(=O)[C@@H](Cc2ccc(NC(=O)[C@H](Cc3ccccc3Cl)NC(=O)c3ccc(F)cc3)cc2)NC(=O)CC2(CCCC2)CC(=O)NCCCCCN1 [Compound 227] | < 0.1 | 0.1 to 1 | – | 1 to 10 | – |
| O=C1CC2(CCCC2)CC(=O)N[C@H](Cc2ccc(NC(=O)[C@H](Cc3ccccc3Cl)NC(=O)C(F)(F)c3ccccc3)cc2)C(=O)NCCOCCOCCN1 [Compound 475] | – | – | – | 0.1 to 1 | Reduction in edema (%) (DNFB-treated BALB/c mice; 10 mg/kg): 19.2%; CXCL1 Reduction (%) (DNFB-treated BALB/c mice; 10 mg/kg): 61.4%; IFNγ Reduction (%) (DNFB-treated BALB/c mice; 10 mg/kg): 11.3%; IL6 Reduction (%) (DNFB-treated BALB/c mice; 10 mg/kg): 29.7%; Reduction in edema (%) (DNFB-treated BALB/c mice; 30 mg/kg): 49.5%; CXCL1 Reduction (%) (DNFB-treated BALB/c mice; 30 mg/kg): 63.0%; IFNγ Reduction (%) (DNFB-treated BALB/c mice; 30 mg/kg): 45.0%; IL6 Reduction (%) (DNFB-treated BALB/c mice; 30 mg/kg): 51.9%; IC50 [4]: < 0.1 µM |
| O=C1CNC(=O)[C@@H](Cc2ccc(NC(=O)[C@@H](NC(=O)Cc3ccc(O)cc3)C3CCCCC3)cc2)NC(=O)CC2(CCCC2)CC(=O)NCCCCCN1 [Compound 192] | < 0.1 | < 0.1 | – | 1 to 10 | – |
| CC(=O)N[C@@H](Cc1ccccc1Cl)C(=O)Nc1ccc(C[C@H]2NC(=O)CC3(CCCC3)CC(=O)N(CCO)CCCCCNC(=O)CNC2=O)cc1 [Compound 169] | < 0.1 | 0.1 to 1 | – | > 10 | – |
| O=C1CNC(=O)[C@@H](Cc2ccc(NC(=O)[C@H](Cc3ccccc3Cl)NC(=O)c3cncnc3)cc2)NC(=O)CC2(CCCC2)CC(=O)NCCCCCN1 [Compound 201] | < 0.1 | 0.1 to 1 | – | > 10 | – |

Second part, led by results:

| Kd (IL17A) [µM] | IC50 [2] [µM] | IC50 [3] [µM] | SMILES | IC50 [1] [µM] | other results |
| --- | --- | --- | --- | --- | --- |
| < 0.1 | < 0.1 | – | O=C1CNC(=O)[C@@H](Cc2ccc(NC(=O)[C@H](Cc3ccccc3Br)NC(=O)Cc3ccc(O)cc3)cc2)NC(=O)CC2(CCCC2)CC(=O)NCCCCCN1 [Compound 211] | 1 to 10 | – |
| – | – | 1 to 10 | COC(=O)[C@@H]1CCCCNC(=O)CCCNC(=O)[C@@H](Cc2ccc(NC(=O)[C@H](Cc3ccccc3Br)NC(=O)Cc3ccccc3)cc2)NC(=O)CC2(CCCC2)CC(=O)N1 [Compound 120] | – | – |
| 0.1 to 1 | – | 1 to 10 | COC(=O)[C@@H]1CCCCNC(=O)CCNC(=O)[C@@H](Cc2ccc(NC(=O)[C@H](Cc3ccccc3F)NC(=O)Cc3ccccc3)cc2)NC(=O)CC2(CCCC2)CC(=O)N1 [Compound 109] | – | – |
| < 0.1 | – | 1 to 10 | COC(=O)[C@@H]1CCCCNC(=O)CCCNC(=O)[C@@H](Cc2ccc(NC(=O)[C@H](Cc3ccccc3Cl)NC(=O)Cc3ccccc3)cc2)NC(=O)CC2(CCCC2)CC(=O)N1 [Compound 112] | – | – |
| < 0.1 | – | 1 to 10 | O=C1CNC(=O)[C@@H](Cc2ccc(NC(=O)[C@H](Cc3c(F)cccc3F)NC(=O)Cc3ccccc3)cc2)NC(=O)CC2(CCCC2)CC(=O)NCCCCCN1 [Compound 184] | – | – |
| < 0.1 | < 0.1 | – | O=C1CNC(=O)[C@@H](Cc2ccc(NC(=O)[C@H](Cc3ccccc3Cl)NC(=O)Cc3ccccc3)cc2)NC(=O)CC2(CCCC2)CC(=O)NCCOCCN1 [Compound 209] | 1 to 10 | – |

Source: patent publication US9284283B2, “Macrocyclic compounds for modulating IL-17” (ENSEMBLE THERAPEUTICS CORPORATION, priority 2012, dated 2016)
